Results on three compounds are retold here after patent US20070173532A1, “New Piperidine Antibiotics” (Actelion Pharmaceuticals Ltd., priority 2004, published 2007).

Values after ≈ are worked out from the molar mass of the structure shown.

Common to all, as to format: cell-based
For one assay, the system named is S. aureus A798. Kind of assay: MIC by microdilution (NCCLS) against S. aureus A798. Conditions: pH 7.2-7.3; for MIC: Staphylococcus aureus, A798, cation-adjusted Mueller-Hinton Broth. On the procedure: (§1) These assays have been performed following the description given in “Methods for dilution Antimicrobial Susceptibility Tests for Bacteria that Grow Aerobically, 4th ed.; Approved standard: NCCLS Document M7-A4; National Committee for Clinical Laboratory Standards: Villanova, Pa., USA, 1997”. Minimal inhibitory concentrations (MICs; mg/l) were determined in cation-adjusted Mueller-Hinton Broth (BBL) by a microdilution method following NCCLS guidelines (National Committee for Clinical Laboratory Standards. Methods for Dilution Antimicrobial Susceptibility). The pH of the test medium was 7.2-7.3. All Examples were tested against several Gram positive and Gram negative bacteria.
A general note: In broth dilution the organism is exposed to a series of concentrations in liquid medium.

The test system of the next assay is S. pneumoniae 49619. Kind of assay: MIC by microdilution (NCCLS) against S. pneumoniae 49619. Conditions: for MIC: Streptococcus pneumoniae, 49619, cation-adjusted Mueller-Hinton Broth, pH 7.2-7.3, read-out: MIC S. Pneunoniae 49619. As for the experimental part: as §1
For another assay, the system named is S. aureus 29213. Kind of assay: MIC by microdilution (NCCLS) against S. aureus 29213. The following applies: pH 7.2-7.3; for MIC: Staphylococcus aureus, 29213, cation-adjusted Mueller-Hinton Broth. On the procedure:
as §1

The subject of a further assay is E. faecalis 29212. Kind of assay: MIC by microdilution (NCCLS) against E. faecalis 29212. The following applies: pH 7.2-7.3; for MIC: Enterococcus faecalis, 29212, cation-adjusted Mueller-Hinton Broth. As for the experimental part:
as §1

A further assay deals with E. faecium A949. Kind of assay: MIC by microdilution (NCCLS) against E. faecium A949. The following applies: pH 7.2-7.3; for MIC: Enterococcus faecium, A949, cation-adjusted Mueller-Hinton Broth. On the procedure:
as §1

For another assay, the system named is S. Pneunoniae A70. The assay can be described thus: MIC by microdilution (NCCLS) against S. Pneunoniae A70. The following applies: cation-adjusted Mueller-Hinton Broth, pH 7.2-7.3. On the procedure: as §1
The mark [1] stands for this setting: cation-adjusted Mueller-Hinton Broth.

For `COc1cnc2cccc(C(O)CC[C@@H]3CCN(C/C=C/c4ccccc4)C[C@@H]3C(=O)O)c2c1` (mixture of isomers) [Example 10, (3R,4R)-4-[(3RS)-3-hydroxy-3-(3-methoxy-quinolin-5-yl)-propyl]-1-trans-(3-phenyl-allyl)-piperidine-3-carboxylic acid], the “MIC S. aureus A798” value with S. aureus A798 (setting [1]) came out at 0.25 µg/mL (≈ 0.543 µM). Further, in the assay on S. pneumoniae 49619 (cation-adjusted Mueller-Hinton Broth, pH 7.2-7.3), the “MIC S. Pneunoniae 49619” value is 1 µg/mL (≈ 2.17 µM). For the same compound, in the assay with S. aureus 29213 (setting [1]), the “MIC S. aureus 29213” value worked out at 0.5 µg/mL (≈ 1.09 µM). Besides, the “MIC E. faecalis 29212” value with E. faecalis 29212 (setting [1]) was 4 µg/mL (≈ 8.68 µM). Further, the “MIC E. faecium A949” value with E. faecium A949 (setting [1]) was 4 µg/mL (≈ 8.68 µM). The “MIC S. Pneunoniae A70” value against S. Pneunoniae A70 was found to be 4 µg/mL (≈ 8.68 µM).

`COc1cnc2cccc(OCC[C@@H]3CCN(CCSc4cccs4)C[C@@H]3CCC(=O)O)c2c1` [Example 1, 3-{(3R,4S)-4-[2-(3-methoxy-quinolin-5-yloxy)-ethyl]-1-[2-(thiophen-2-ylsulfanyl)-ethyl]-piperidin-3-yl}-propionic acid]: the minimal inhibitory concentration (MIC) was 0.25 µg/mL (≈ 0.499 µM) with S. aureus A798; 0.5 µg/mL (≈ 0.999 µM) with S. pneumoniae 49619; 0.5 µg/mL (≈ 0.999 µM) against S. aureus 29213; 8 µg/mL (≈ 16 µM) in the assay with E. faecalis 29212; 1 µg/mL (≈ 2 µM) in the assay with E. faecium A949; 1 µg/mL (≈ 2 µM) with S. Pneunoniae A70.

Regarding `COc1cnc2cccc(OCC[C@@H]3CCN(CCSc4cccs4)C[C@@H]3CCCO)c2c1` [Example 2, 3-{(3R,4S)4-[2-(3-methoxy-quinolin-5-yloxy)-ethyl]-1-[2-(thiophen-2-ylsulfanyl)-ethyl]-piperidin-3-yl}-propan-1-ol], the MIC amounted to 0.25 µg/mL (≈ 0.514 µM) against S. aureus A798; 0.5 µg/mL (≈ 1.03 µM) in the assay on S. pneumoniae 49619; 1 µg/mL (≈ 2.05 µM) with S. aureus 29213; 2 µg/mL (≈ 4.11 µM) against E. faecalis 29212; 2 µg/mL (≈ 4.11 µM) against E. faecium A949; 1 µg/mL (≈ 2.05 µM) against S. Pneunoniae A70.

As usually defined, the MIC is the lowest concentration found to suppress growth.
